Reference: patent US6344576B1, “Phospholipid-analogous compounds” (Max-Planck-Gesellschaft zur Förderung der Wissenschaften …, priority 1997, dated 2002)

What was measured:
[1] = Use as solubilizer for substances of low solubility in water
[2] = Behaviour in water (solubility, gel formation, suitability for intravenous administration); format: physicochemical

Compound | suitability as solubilizer for substances of low solubility in water [1] | gel formation in water [2]
CCCCCCCC/C=C\CCCCCCCCCCCC(=O)OC[C@@H](O)COP(=O)([O-])OCCC[N+](C)(C)C [Example 139, 1-Erucoyl-sn-glycero-3-phospho-N,N,N-trimethyl-propylammonium] | proved useful | 
1,2-Dioleoyl-sn-glycero-3-phospho-N,N-dimethyl-N-dihydroxypropyl-ethylammonium [Example 14] | proved useful | 
CCCCCCCC/C=C\CCCCCCCCCCCCOP(=O)([O-])OCC[N+](C)(C)C [Erucylphosphocholine] |  | forms gel-like structures in water
CCCCCCCC/C=C\CCCCCCCC(=O)OC[C@H](COP(=O)([O-])OCCC[N+](C)(C)C)OC(=O)CCCCCCC/C=C\CCCCCCCC [Example 85, 1,2-Dioleoyl-sn-glycero-3-phospho-N,N,N-trimethyl-propylammonium] | proved useful | 
